According to patent US20180339976A1, “NOVEL TRIAZOLE DERIVATIVES” (priority 2015, published 2018):
Where two headings read alike, the source gives them in different places.

Assay: Log P by HPLC on reversed phase columns (EEC directive 79/831 Annex V.A8)
Type: physicochemical
Method: Measurement of Log P values was performed according to EEC directive 79/831 Annex V.A8 by HPLC (High Performance Liquid Chromatography) on reversed phase columns with the following methods: • ^[a]
If more than one Log P value is available within the same method, all the values are given and separated by “+”.
Lambda-max-values were determined using UV-spectra from 200 nm to 400 nm and the peak values of the chromatographic signals.

[1] = Table 2, epoxides of formula (XII), method [a]: LC-UV, acidic range, 0.1% formic acid in water and acetonitrile
[2] = Table 1, formula (I), method [a]: LC-UV, acidic range, 0.1% formic acid in water and acetonitrile

Row | SMILES | LogP [1] | LogP | further results
1 | Fc1ccc(C2(Cc3cc(F)ncc3Cl)CO2)c(F)c1 (racemic) [XII-35] | 3.46^[a] | – | –
2 | Fc1cc(CC2(c3ccc(Cl)cc3Cl)CO2)c(Cl)cn1 (racemic) [XII-36] | 4.45^[a] | – | –
3 | Fc1cc(CC2(c3ccc(Cl)cc3)CO2)c(Cl)cn1 (racemic) [XII-37] | 3.85^[a] | – | –
4 | Fc1cc(CC2(c3ccccc3Cl)CO2)c(Cl)cn1 (racemic) [XII-38] | 3.80^[a] | – | –
5 | Fc1ccc(C2(Cc3cc(F)ncc3Cl)CO2)cc1 (racemic) [XII-39] | 3.37^[a] | – | –
6 | Fc1cc(CC2(c3ccc(Oc4ccccc4)cc3)CO2)c(Cl)cn1 (racemic) [XII-40] | 4.57^[a] | – | –
7 | Fc1ccc(Oc2ccc(C3(Cc4cc(F)ncc4Cl)CO3)cc2)c(F)c1 (racemic) [XII-41] | 4.51^[a] | – | –
8 | Fc1cc(CC2(c3ccc(-c4ccccc4)cc3)CO2)c(Cl)cn1 (racemic) [XII-42] | 4.64^[a] | – | –
9 | Fc1c(CC2(c3ccc(Cl)cc3)CO2)ccnc1Cl (racemic) [XII-43] | 3.58^[a] | – | –
10 | Fc1ccc(Oc2ccc(C3(Cc4ccnc(Cl)c4F)CO3)cc2)c(F)c1 (racemic) [XII-44] | 4.20^[a] | – | –
11 | Fc1c(CC2(c3ccc(-c4ccccc4)cc3)CO2)ccnc1Cl (racemic) [XII-45] | 4.25^[a] | – | –
12 | Fc1c(CC2(c3ccc(Cl)cc3Cl)CO2)ccnc1Cl (racemic) [XII-46] | 3.02^[a] | – | –
13 | Fc1ccc(C2(Cc3ccnc(Cl)c3F)CO2)c(F)c1 (racemic) [XII-47] | 3.26^[a] | – | –
14 | Fc1c(CC2(c3ccc(Oc4ccccc4)cc3)CO2)ccnc1Cl (racemic) [XII-48] | 4.20^[a] | – | –
15 | Fc1c(CC2(c3ccccc3Cl)CO2)ccnc1Cl (racemic) [XII-49] | 3.47^[a] | – | –
16 | Fc1ccc(C2(Cc3ccnc(Cl)c3F)CO2)cc1 (racemic) [XII-50] | 3.11^[a] | – | –
17 | Clc1cncc(Cl)c1CC1(c2ccc(Oc3ccccc3)cc2)CO1 (racemic) [XII-51] | 4.76^[a] | – | –
18 | Fc1ccc(Oc2ccc(C3(Cc4c(Cl)cncc4Cl)CO3)cc2)c(F)c1 (racemic) [XII-52] | 4.70^[a] | – | –
19 | Clc1cncc(Cl)c1CC1(c2ccc(-c3ccccc3)cc2)CO1 (racemic) [XII-53] | 4.89^[a] | – | –
20 | Clc1ccc(C2(Cc3c(Cl)cncc3Cl)CO2)c(Cl)c1 (racemic) [XII-54] | 4.76^[a] | – | –
21 | Fc1ccc(C2(Cc3c(Cl)cncc3Cl)CO2)c(F)c1 (racemic) [XII-55] | 3.68^[a] | – | –

Row | SMILES | LogP [1] | LogP | further results
22 | Fc1ccc(C2(Cc3c(Cl)cncc3Cl)CO2)cc1 (racemic) [XII-56] | 3.58^[a] | – | –
23 | Clc1ccc(C2(Cc3c(Cl)cncc3Cl)CO2)cc1 (racemic) [XII-57] | 4.10^[a] | – | –
24 | Clc1cncc(Cl)c1CC1(c2ccccc2)CO1 (racemic) [XII-58] | 3.53^[a] | – | –
25 | Clc1ccccc1C1(Cc2c(Cl)cncc2Cl)CO1 (racemic) [XII-59] | 4.04^[a] | – | –
26 | Cc1cc(C)c(C2(Cc3ccncc3Cl)CO2)c(C)c1 (racemic) [XII-60] | 4.15^[a] | – | –
27 | Clc1cnccc1CC1(c2cccc(Cl)c2Cl)CO1 (racemic) [XII-61] | 3.53^[a] | – | –
28 | Clc1cnccc1CC1(c2c(Cl)cccc2Cl)CO1 (racemic) [XII-62] | 3.02^[a] | – | –
29 | Clc1ccccc1COc1cccc(C2(Cc3ccncc3Cl)CO2)c1 (racemic) [XII-63] | 4.30^[a] | – | –
30 | Clc1ccccc1COc1ccc(C2(Cc3ccncc3Cl)CO2)cc1 (racemic) [XII-64] | 4.30^[a] | – | –
31 | OC(Cc1ccnc(Cl)c1F)(Cn1cncn1)c1ccc(F)cc1F (single isomer, unassigned) [Example I-55] | – | 2.21^[a] | –
32 | OC(Cc1ccnc(Cl)c1F)(Cn1cncn1)c1ccc(F)cc1F (single isomer, unassigned) [Example I-56] | – | 2.21^[a] | –
33 | OC(Cc1ccncc1Cl)(Cn1cncn1)c1ccc(Oc2ccccc2)cc1 (centres unmarked) [Example I-01] | – | 2.46^[a] | –
34 | OC(Cc1ccncc1Cl)(Cn1cncn1)c1ccc(-c2ccccc2)cc1 (centres unmarked) [Example I-02] | – | – | LogP [2]: 2.46^[a]
35 | OC(Cc1ccncc1F)(Cn1cncn1)c1ccc(Oc2ccccc2)cc1 (centres unmarked) [Example I-03] | – | 2.13^[a] | –
36 | OC(Cc1ccncc1F)(Cn1cncn1)c1ccc(-c2ccccc2)cc1 (centres unmarked) [Example I-04] | – | – | LogP [2]: 2.13^[a]
37 | OC(Cc1ccnc(Cl)c1)(Cn1cncn1)c1ccc(F)cc1 (centres unmarked) [Example I-05] | – | 1.69^[a] | –
38 | OC(Cc1ccncc1Cl)(Cn1cncn1)c1ccc(Oc2ccc(Cl)cc2)cc1 (centres unmarked) [Example I-06] | – | 2.90^[a] | –
39 | OC(Cc1ccnc(Cl)c1F)(Cn1cncn1)c1ccccc1Cl (centres unmarked) [Example I-07] | – | 2.27^[a] | –
40 | OC(Cc1ccnc(Cl)c1F)(Cn1cncn1)c1ccc(F)cc1F (centres unmarked) [Example I-08, 1-(2-chloro-3-fluoro-4-pyridyl)-2-(2,4-difluorophenyl)-3-(1,2,4-triazol-1-yl)propan-2-ol] | – | – | chromatographic logP: 2.14
41 | OC(Cc1ccnc(Cl)c1F)(Cn1cncn1)c1ccc(Cl)cc1Cl (centres unmarked) [Example I-09] | – | 2.69^[a] | –
42 | OC(Cc1ccnc(Cl)c1F)(Cn1cncn1)c1ccc(Cl)cc1 (centres unmarked) [Example I-10] | – | 2.23^[a] | –

Row | SMILES | LogP [1] | LogP | further results
43 | OC(Cc1ccncc1Cl)(Cn1cncn1)c1ccc(Cl)cc1 (centres unmarked) [Example I-11] | – | 1.86^[a] | –
44 | OC(Cc1ccncc1F)(Cn1cncn1)c1ccc(F)cc1 (centres unmarked) [Example I-13] | – | 1.26^[a] | –
45 | OC(Cc1cc(F)ncc1Cl)(Cn1cncn1)c1ccccc1 (centres unmarked) [Example I-14] | – | 2.02^[a] | –
46 | OC(Cc1cc(F)ncc1Cl)(Cn1cncn1)c1ccc(F)cc1 (centres unmarked) [Example I-15] | – | 2.12^[a] | –
47 | OC(Cc1cccnc1Cl)(Cn1cncn1)c1ccc(C(F)(F)F)cc1 (centres unmarked) [Example I-16] | – | 2.22^[a] | –
48 | OC(Cc1cccnc1Cl)(Cn1cncn1)c1cccc(Cl)c1 (centres unmarked) [Example I-17] | – | 1.97^[a] | –
49 | OC(Cc1ccncc1Cl)(Cn1cncn1)c1ccc(F)cc1 (centres unmarked) [Example I-18] | – | 1.57^[a] | –
50 | OC(Cc1ccncc1Cl)(Cn1cncn1)c1ccc(Oc2ccc(F)cc2F)cc1 (centres unmarked) [Example I-19] | – | 2.57^[a] | –
51 | OC(Cc1ccncc1F)(Cn1cncn1)c1ccc(Oc2ccc(F)cc2F)cc1 (centres unmarked) [Example I-20] | – | 2.27^[a] | –
52 | OC(Cc1ccnc(Cl)c1F)(Cn1cncn1)c1ccc(F)cc1 (centres unmarked) [Example I-23] | – | 1.91^[a] | –
53 | OC(Cc1ccnc(Cl)c1)(Cn1cncn1)c1ccc(Oc2ccccc2)cc1 (centres unmarked) [Example I-24] | – | 2.57^[a] | –
54 | OC(Cc1ccnc(Cl)c1)(Cn1cncn1)c1ccc(Oc2ccc(F)cc2F)cc1 (centres unmarked) [Example I-25] | – | 2.69^[a] | –
55 | OC(Cc1cc(Cl)ncc1F)(Cn1cncn1)c1ccc(-c2ccccc2)cc1 (centres unmarked) [Example I-26] | – | – | LogP [2]: 2.88^[a]
56 | OC(Cc1cc(F)ncc1Cl)(Cn1cncn1)c1ccc(-c2ccccc2)cc1 (centres unmarked) [Example I-27] | – | – | LogP [2]: 3.02^[a]
57 | OC(Cc1cc(F)ncc1Cl)(Cn1cncn1)c1ccc(Cl)cc1 (centres unmarked) [Example I-28] | – | 2.43^[a] | –
58 | OC(Cc1cccnc1Cl)(Cn1cncn1)c1ccc(Cl)cc1F (centres unmarked) [Example I-29, 2-(4-chloro-2-fluoro-phenyl)-1-(2-chloro-3-pyridyl)-3-(1,2,4-triazol-1-yl)propan-2-ol] | – | – | chromatographic logP: 2.15
59 | OC(Cc1ccncc1Cl)(Cn1cncn1)c1ccc(F)cc1F (centres unmarked) [Example I-30] | – | 1.76^[a] | –
60 | OC(Cc1ccncc1F)(Cn1cncn1)c1ccc(Cl)cc1 (centres unmarked) [Example I-31] | – | 1.54^[a] | –
61 | OC(Cc1cc(Cl)ncc1F)(Cn1cncn1)c1ccc(F)cc1 (centres unmarked) [Example I-32] | – | 1.96^[a] | –
62 | OC(Cc1cc(F)ncc1Cl)(Cn1cncn1)c1ccc(Oc2ccccc2)cc1 (centres unmarked) [Example I-34] | – | 3.02^[a] | –
63 | N#Cc1ccc(C(O)(Cc2cccnc2Cl)Cn2cncn2)cc1 (centres unmarked) [Example I-35] | – | 1.47^[a] | –

Row | SMILES | LogP [1] | LogP | further results
64 | OC(Cc1ccncc1F)(Cn1cncn1)c1ccccc1 (centres unmarked) [Example I-36] | – | 1.13^[a] | –
65 | OC(Cc1ccnc(Cl)c1)(Cn1cncn1)c1ccccc1 (centres unmarked) [Example I-37] | – | 1.60^[a] | –
66 | CC(C)(C)c1noc(-c2ccc(C(O)(Cc3ccncc3Cl)Cn3cncn3)cc2)n1 (centres unmarked) [Example I-38] | – | 2.65^[a] | –
67 | OC(Cc1ccnc(Cl)c1)(Cn1cncn1)c1ccc(-c2ccccc2)cc1 (centres unmarked) [Example I-39] | – | – | LogP [2]: 2.57^[a]
68 | OC(Cc1cc(Cl)ncc1F)(Cn1cncn1)c1ccc(Cl)cc1 (centres unmarked) [Example I-40] | – | 2.27^[a] | –
69 | OC(Cc1cc(F)ncc1Cl)(Cn1cncn1)c1ccc(F)cc1F (centres unmarked) [Example I-41] | – | 2.35^[a] | –
70 | OC(Cc1ccncc1Cl)(Cn1cncn1)c1ccc(Cl)cc1Cl (centres unmarked) [Example I-42] | – | 2.38^[a] | –
71 | OC(Cc1ccncc1F)(Cn1cncn1)c1ccc(F)cc1F (centres unmarked) [Example I-43] | – | 1.47^[a] | –
72 | OC(Cc1ccnc(Cl)c1)(Cn1cncn1)c1ccc(F)cc1F (centres unmarked) [Example I-44] | – | 1.86^[a] | –
73 | OC(Cc1cc(Cl)ncc1F)(Cn1cncn1)c1ccc(F)cc1F (centres unmarked) [Example I-45] | – | 2.13^[a] | –
74 | OC(Cc1ccnc(Cl)c1F)(Cn1cncn1)c1ccc(Oc2ccccc2)cc1 (centres unmarked) [Example I-46] | – | 2.84^[a] | –
75 | OC(Cc1ccnc(Cl)c1)(Cn1cncn1)c1ccc(Cl)cc1 (centres unmarked) [Example I-47] | – | 1.96^[a] | –
76 | OC(Cc1cc(Cl)ncc1F)(Cn1cncn1)c1ccccc1 (centres unmarked) [Example I-48] | – | 1.86^[a] | –
77 | OC(Cc1ccnc(Cl)c1F)(Cn1cncn1)c1ccccc1 (centres unmarked) [Example I-49] | – | 1.84^[a] | –
78 | OC(Cc1ccnc(Cl)c1)(Cn1cncn1)c1ccc(Cl)cc1Cl (centres unmarked) [Example I-50] | – | 2.42^[a] | –
79 | OC(Cc1cccnc1Cl)(Cn1cncn1)c1ccccc1 (centres unmarked) [Example I-51] | – | 1.61^[a] | –
80 | OC(Cc1cccnc1Cl)(Cn1cncn1)c1ccc(Cl)cc1 (centres unmarked) [Example I-52] | – | 1.99^[a] | –
81 | OC(Cc1ccncc1F)(Cn1cncn1)c1ccc(Cl)cc1Cl (centres unmarked) [Example I-53] | – | 2.00^[a] | –
82 | OC(Cc1cc(F)ncc1Cl)(Cn1cncn1)c1ccc(Oc2ccc(F)cc2F)cc1 (centres unmarked) [Example I-54] | – | 3.02^[a] | –
83 | COC(Cc1ccnc(Cl)c1F)(Cn1cncn1)c1ccc(F)cc1F (centres unmarked) [Example I-57] | – | 2.47^[a] | –
